# Test results from paper PMC11224556, “Next-generation of BBQ analogues that selectively target breast cancer” (Frontiers in Chemistry, 2024).
# Assays:
# AhR mRNA = experiment: Gene expression analysis (qPCR) in MDA-MB-468 cells; type: cell-based, human; details: 1 μM and the GI50 value, 6 h
# Procedure: (§1) These analogues were specifically chosen because they were synthesised without the production of regioisomers, their structural differences are small while their biological differences are large, c.f. […] Neither analogue altered the expression of SULT1A1 (Figure 4D).
# (§2) Gene expression was examined in MDA-MB-468 cells following 6 h treatment. Total RNA was extracted using the RNeasy Mini Kit (Qiagen) according to the manufacturer’s instructions. One µg of RNA was reverse transcribed using the QuanitTect Reverse Transcription Kit (Qiagen) according to the manufacturer’s instructions. Rotor-Gene SYBR Green PCR Kit (Qiagen) was used to perform qPCR on a Rotor-Gene 3,000 Thermo-Cycler Instrument using β2-microglobulin as a housekeeping gene (Qiagen). The primer sequences were purchased from Qiagen as follows: AhR (QT02422938), CYP1A1 (QT00012341), CYP1B1 (QT00209496), SULT1A1 (QT01665489), and β2M (QT00088935). HotStar Taq activation (95 °C for 5 min) was followed by 40 cycles of denaturation (95 °C for 5 s), and annealing/extension (60 °C for 10 s). The comparative Ct value method was used for data analysis. Results are presented as the mean ± standard error of the mean (SEM) of analysis conducted in duplicate and repeated on two separate occasions. Significant test results were determined using T-test analysis at p < 0.01 with a two tail distribution.
# CYP1A1 mRNA = experiment: as above; type: cell-based, human; details: 6 h
# Procedure: as §1, §2
# CYP1B1 mRNA = experiment: as above; type: cell-based, human; details: 1.0 μM, 6 h
# Procedure: as §1, §2
# [1] = system: MCF10A normal breast cells; experiment: MTT growth inhibition with CYP1 (αNF) or SULT1A1 (quercetin) inhibitor; type: cell-based, human; details: 3 and 5 at 0.1 µM, αNF 10 µM, quercetin 5 µM, 72 h (Supp Figure 1)
# Procedure: This analysis confirms that both CYP1 and SULT1A1, activity is needed to induce the growth inhibitory effect of the BBQ analogue.
# Cells in logarithmic growth were transferred to 96-well plates. Cytotoxicity was determined by plating cells in duplicate in 100 μL medium at a density of 2,500–4,000 cells/well in 96 well plates. On day 0, (24 h after plating) when the cells were in logarithmic growth 100 μL medium with or without the test agent was added to each well. After 72 h drug exposure growth inhibitory effects were evaluated using the MTT (3-[4,5-dimethylthiazol-2-yl]-2,5-diphenyltetrazolium bromide) assay with absorbance read at 540 nm. An eight-point dose response curve was produced, using MS Excel software. From these dose-response curves, the GI50 value was calculated, representing the drug concentration at which cell growth is 50% inhibited based on the difference between the optical density values on day 0 and those at the end of drug exposure ([Bradshaw et al., 2008]; [Zhang et al., 2009]). Each data point was conducted in duplicate and the mean ± S.E.M. calculated from four to five replicates (n = 4 or 5), which were performed on separate occasions and separate cell line passages. Where shown, significant test results were determined using T-test analysis at p < 0.01 and p < 0.05 with a two tail distribution.
# Supp Figure 1. CYP1 and SULT1A1 inhibition ameliorates the effect of 3 and 5. Growth inhibition (72 h, MTT assay) of 3 and 5 (0.1 µM) in the presence of the CYP1 family inhibitor, α-naphthoflavone (αNF, 10 µM) and SULT1A1 inhibitor, quercetin (qu, 5 µM) in (A) MDA-MB-468 breast cancer cells and (B) MCF10A normal breast cells. Significant differences are at the P < 0.01 ** level, using a paired T-test with a two-tailed distribution.
# [2] = system: broad panel of cancer cell lines and non-cancer breast cell line MCF10A; details: cited from earlier work
# HT29 (colorectal) cells = system: HT29 (colorectal) cells; set-up: method as in Gilbert et al., 2020; details: HT29, Colon; MTT, 72 h; ref Gilbert et al., 2020; cited from earlier work
# U87 (brain) cells = system: U87 (brain) cells; set-up: method as in Gilbert et al., 2020; details: U87, Brain (GBM); MTT, 72 h; ref Gilbert et al., 2020; cited from earlier work
# SJ-G2 (brain) cells = system: SJ-G2 (brain) cells; set-up: method as in Gilbert et al., 2020; details: SJ-G2, Brain (GBM); MTT, 72 h; ref Gilbert et al., 2020; cited from earlier work
# A2780 (ovary) cells = system: A2780 (ovary) cells; set-up: method as in Gilbert et al., 2020; details: MTT, 72 h, ref Gilbert et al., 2020; cited from earlier work
# BE2-C (neuronal) cells = system: BE2-C (neuronal) cells; set-up: method as in Gilbert et al., 2020; details: Neuron, MTT, 72 h, ref Gilbert et al., 2020; cited from earlier work
# H460 (lung, ER+) cells = system: H460 (lung, ER+) cells; set-up: method as in Gilbert et al., 2020; details: MTT, 72 h, ref Gilbert et al., 2020; cited from earlier work
# [3] = system: A431 (vulva/skin, ER+) cells; set-up: method as in Gilbert et al., 2020; details: MTT, 72 h, ref Gilbert et al., 2020; cited from earlier work
# T47D breast cancer cells = system: T47D breast cancer cells; set-up: method as in Gilbert et al., 2020; details: Breast (ER/PR), MTT, 72 h, ref Gilbert et al., 2020; cited from earlier work
# [4] = system: SKBR3 breast cancer cells; set-up: method as in Gilbert et al., 2020; details: SKBR3, Breast (HER2); MTT, 72 h; ref Gilbert et al., 2020; cited from earlier work
# [5] = system: MDA-MB-468 breast cancer cells; set-up: method as in Gilbert et al., 2020; details: MDA-MB-468, Breast (TN); MTT, 72 h; ref Gilbert et al., 2020; cited from earlier work
# BT20 breast cancer cells = system: BT20 breast cancer cells; set-up: method as in Gilbert et al., 2020; details: BT20, Breast (TN); MTT, 72 h; ref Gilbert et al., 2020; cited from earlier work
# [6] = system: MDA-MB-231 breast cancer cells; set-up: method as in Gilbert et al., 2020; details: MDA-MB-231, Breast (TN); MTT, 72 h; ref Gilbert et al., 2020; cited from earlier work
smiles,measurement,setting,value
"O=c1c2cccc3cccc(c32)c2nc3ccc(Cl)cc3n12 [Compound 3, 10-Chloro-7H-benzo[de]benzo[4,5]imidazo[2,1-a]isoquinolin-7-one]",effect on expression of AhR,AhR mRNA,not significantly altered
same,CYP1A1 Fold change (mRNA vs DMSO control),CYP1A1 mRNA; 0.2 μM,18 fold
same,CYP1A1 Fold change (mRNA vs DMSO control),CYP1A1 mRNA; 1.0 μM,20 fold
same,CYP1B1 Fold change (mRNA vs DMSO control),CYP1B1 mRNA,3.7 fold
same,effect on growth in normal MCF10A cells,[1],"Neither 3, 5, αNF, or quercetin affected growth"
same,selective in targeting certain breast cancer cell lines compared with normal cells or other tumour types (fold),"[2]; ref Baker et al., 2021a, Elson et al., 2023",up to 150 fold
"O=c1c2cccc3cccc(c32)c2nc3ccccc3n12 [Compound 5, 7H-Benzo[de]benzo[4,5]imidazo[2,1-a]isoquinolin-7-one]",effect on expression of AhR,AhR mRNA,not significantly altered
same,CYP1A1 Fold change (mRNA vs DMSO control),CYP1A1 mRNA; 0.02 μM,12 fold
same,CYP1A1 Fold change (mRNA vs DMSO control),CYP1A1 mRNA; 1.0 μM,15 fold
same,CYP1B1 Fold change (mRNA vs DMSO control),CYP1B1 mRNA,4.6 fold
same,effect on growth in normal MCF10A cells,[1],"Neither 3, 5, αNF, or quercetin affected growth"
"Nc1ccccc1N1C(=O)c2cccc3cccc(c23)C1=O [Compound 2, 2-(2-aminophenyl)-1H-benzo[de]isoquinoline-1,3(2H)-dione]",GI50,HT29 (colorectal) cells,32 ± 2 µM
same,GI50,U87 (brain) cells,> 50 µM
same,GI50,SJ-G2 (brain) cells,> 50 µM
same,GI50,A2780 (ovary) cells,21 ± 4 µM
same,GI50,BE2-C (neuronal) cells,> 50 µM
same,GI50,"H460 (lung, ER+) cells",15 ± 7.5 µM
same,GI50,[3],0.25 ± 0.12 µM
same,GI50,T47D breast cancer cells,0.18 ± 0.02 µM
same,GI50,[4],0.22 ± 0.02 µM
same,GI50,[5],0.1 ± 0.02 µM
same,GI50,BT20 breast cancer cells,14 ± 1.5 µM
same,GI50,[6],35 ± 3 µM
same,GI50,"[2]; A431, MCF-7, T47D, ZR-75-1, SKBR3, MDA-MB-468, BT474, ref Gilbert et al., 2020, read-out: GI50 (range over cell lines)",0.1 to 0.7 µM
same,selective targeting of certain breast cancer cell lines compared with normal breast cells or other tumour types (fold),"[2]; ref Gilbert et al., 2017, Gilbert et al., 2020",more than 500 fold
